Reference: US10363262B1, “Composition for treating wound comprising gypenoside LXXV” (Intelligent Synthetic Biology Center, priority 2018, dated 2019)

How the values were obtained:
CTGF [1] = test: ELISA assay of CTGF production by human dermal fibroblasts; type: cell-based; conditions: supernatant of human dermal fibroblasts
CTGF protein = test: western blot of CTGF protein in wound skin tissue; type: in vivo, mouse; conditions: after 3 days
Protocol: To examine whether the G75 treatment increases the expression level of CTGF protein, each wound was treated with G75, and after 3 days, the skin tissue was collected and subjected to western blot.

[2] = compared with ginsenosides having a large size (about 1,000 Da); cited from earlier work
[3] = tested on: excision wound mouse model; test: in vivo wound closure activity in excision wound mouse model; conditions: ICR mice, once a day for 9 days, topical
Protocol: The in vivo wound closure activity was measured in an excision wound mouse model.
Eight-week-old male ICR mice were purchased from Narabiotech (Korea), acclimatized for one week, and used in the experiment. Two full-thickness circular wounds (diameter: 5 mm) were created on the dorsal region of each mouse, and the progressive changes in wound closure were measured relative to the original wound area. G75 (5 μM/wound) or MA (10 μM/wound) was then applied on each wound area once a day for 9 days. DMSO-propylene glycol was used as a vehicle control.

HaCaT keratinocytes [4] = test: scratch wound closure assay (migration of HaCaT keratinocytes); type: cell-based
Protocol: Specifically, HaCaT keratinocytes were cultured in a 6-well plate and the plate was scratched using a 200 μL micropipette tip. The remainder was washed with PBS and the cells were cultured for 24 hours, treated with 10 μM ginsenoside or DMSO, and the gap regions were measured (FIG. 1B).
(§1) Each cell was seeded into a 96-well plate and cultured at 37° C. for 48 hours. The cultured cells were treated with G75, MA, or DMSO at a concentration of 5 μM or 10 μM. After 48 hours, the proliferation of these cells was confirmed using the non-radioactive cell proliferation assay kit (Promega, WI, USA), and migration of these cells was confirmed in the same manner as in Example 1-2 (FIG. 2).

HaCaT keratinocytes [5] = test: non-radioactive cell proliferation assay, HaCaT keratinocytes; type: cell-based
Protocol: as §1

HaCaT keratinocytes [6] = test: MTT analysis of proliferation of HaCaT keratinocytes; type: cell-based; conditions: 48 hours
Protocol: HaCaT keratinocytes were treated with major ginsenosides (e.g., Rb1, Rd, Re, and Rg1) and other ginsenosides (e.g., C-K, F1, F2, G17, G75, PPD, PPT, Rg2, Rg3, Rh1, and Rh2) at a concentration of 0.01 μM to 20 μM for 48 hours and then subjected to MTT analysis (FIG. 1A). As the control group, DMSO was used.

Fgf2 = test: RNA sequencing, growth factor mRNA level in wound tissue; type: in vivo, mouse; conditions: third day after treatment, versus vehicle control
Protocol: (§2) To examine the process of G75 involvement in wound recovery, RNA sequencing was performed. After creating an excision wound on the dorsal area of each mouse, the wound was treated with G75 or the vehicle control, and RNA was isolated from the dorsal excisional wound tissue on the third day after the treatment and analyzed. When the p value was 0.05 or below and there was a change of 1.7-fold or greater, the change was considered to significant.
(§3) To confirm the effect of G75 on the growth factors involved in wound healing, the mRNA levels of growth factors were measured based on the results of RNA sequencing analysis.

Hbegf = test: as above; type: in vivo, mouse; conditions: third day after treatment, versus vehicle control
Protocol: as §2, §3

Tgf beta1 = test: as above; type: in vivo, mouse; conditions: third day after treatment, versus vehicle control
Protocol: as §2, §3

Angpt1 = test: as above; type: in vivo, mouse; conditions: third day after treatment, versus vehicle control
Protocol: as §2, §3

Fgf7 = test: as above; type: in vivo, mouse; conditions: third day after treatment, versus vehicle control
Protocol: as §2, §3

Vegf alpha = test: as above; type: in vivo, mouse; conditions: third day after treatment, versus vehicle control
Protocol: as §2, §3

Csf2 = test: as above; type: in vivo, mouse; conditions: third day after treatment, versus vehicle control
Protocol: as §2, §3

Hgf = test: as above; type: in vivo, mouse; conditions: third day after treatment, versus vehicle control
Protocol: as §2, §3

Fgf10 = test: as above; type: in vivo, mouse; conditions: third day after treatment, versus vehicle control
Protocol: as §2, §3

Tgf alpha = test: as above; type: in vivo, mouse; conditions: third day after treatment, versus vehicle control
Protocol: as §2, §3

Igf1 = test: as above; type: in vivo, mouse; conditions: third day after treatment, versus vehicle control
Protocol: as §2, §3

CTGF [7] = test: as above; type: in vivo, mouse; conditions: third day after treatment, versus vehicle control
Protocol: as §2, §3

[8] = tested on: dorsal excisional wound tissue; test: RNA sequencing of dorsal excisional wound tissue; type: in vivo, mouse; conditions: third day after treatment; p 0.05 or below and change of 1.7-fold or greater
Protocol: as §2

human dermal fibroblasts [9] = test: non-radioactive cell proliferation assay, human dermal fibroblasts; type: cell-based; conditions: 10 μM, 48 hours
Protocol: as §1

human dermal fibroblasts [10] = test: proliferation of human dermal fibroblasts treated with CTGF; type: cell-based

CC(C)=CCC[C@](C)(O[C@@H]1O[C@H](CO[C@@H]2O[C@H](CO)[C@@H](O)[C@H](O)[C@H]2O)[C@@H](O)[C@H](O)[C@H]1O)[C@H]1CC[C@]2(C)[C@@H]1[C@H](O)C[C@@H]1[C@@]3(C)CC[C@H](O)C(C)(C)[C@@H]3CC[C@]12C [G75, gypenoside LXXV]
amount of CTGF production (CTGF [1]): increased the amount of CTGF production
expression level of CTGF protein (CTGF protein): significantly increased
in vivo absorption rate [2]: greater in vivo absorption rate
wound area compared to vehicle control ([3]; 5 μM/wound): wound areas became smaller
cell migration (HaCaT keratinocytes [4]; Example 2-1, 5 μM): significant effect
cell migration (HaCaT keratinocytes [4]; Example 2-1, 10 μM): significant effect
migration effect (gap regions) (HaCaT keratinocytes [4]; HaCaT keratinocytes, 10 μM, compared to DMSO control): highest migration effect
effects compared with MA at the same concentration (HaCaT keratinocytes [5]; cell proliferation and cell migration, HaCaT keratinocytes and human dermal fibroblasts): superior effects to MA
cell proliferation effect relative to the control group (HaCaT keratinocytes [6]; 0.01 μM to 20 μM, DMSO control): about 136.8%
cell proliferation effect (HaCaT keratinocytes [6]; 0.01 μM to 20 μM, compared to other ginsenosides / control): highest cell proliferation effect
concentration at which the highest cell proliferation effect was shown (HaCaT keratinocytes [6]): 10 µM
Fold change Fgf2 mRNA (Fgf2): 8.143
Fold change Hbegf mRNA (Hbegf): 1.267
Fold change Tgf beta1 mRNA (Tgf beta1): 1.392
Fold change Angpt1 mRNA (Angpt1): 1.796
Fold change Fgf7 mRNA (Fgf7): 1.789
Fold change Vegf alpha mRNA (Vegf alpha): 1.281
Fold change Csf2 mRNA (Csf2): 5.545
Fold change Hgf mRNA (Hgf): 1.191
Fold change Fgf10 mRNA (Fgf10): 1.750
Fold change Tgf alpha mRNA (Tgf alpha): 1.504
Fold change Igf1 mRNA (Igf1): 1.367
Fold change CTGF mRNA (CTGF [7]): 1.879
number of genes whose expression level was changed [8]: 1048

madecassoside [reference compound]
cell proliferation (human dermal fibroblasts [9]): slight effect
wound area compared to vehicle control ([3]; 10 μM/wound): wound areas became smaller
cell proliferation (HaCaT keratinocytes [5]; HaCaT keratinocytes, 10 μM, 48 hours): slight effect

B1: CTGF: connective tissue growth factor, applied to human dermal fibroblasts (protein, UniProt P29279 27-349, looked up)
CCN family member 2: QNCSGPCRCPDEPAPRCPAGVSLVLDGCGCCRVCAKQLGELCTERDPCDPHKGLFCHFGSPANRKIGVCTAKDGAPCIFGGTVYRSGESFQSSCKYQCTCLDGAVGCMPLCSMDVRLPSPDCPFPRRVKLPGKCCEEWVCDEPKDQTVVGPALAAYRLEDTFGPDPTMIRANCLVQTTEWSACSKTCGMGISTRVTNDNASCRLEKQSRLCMVRPCEADLEENIKKGKKCIRTPKISKPIKFELSGCTSMKTYRAKFCGVCTDGRCCTPHRTTTLPVEFKCPDGEVMKKNMMFIKTCACHYNCPGDNDIFESLYYRKMYGDMA
proliferation compared to the vehicle control (human dermal fibroblasts [10]): higher level of proliferation
